The record followed here is PubChem BioAssay (NCI).

Test systems include 786-0 renal; ACHN renal; HCT-15 colon; HOP-92 NSCLC; K-562 leukemia; LOX IMVI melanoma; MDA-MB-231 breast; NCI-H460 lung; U251 CNS; UACC-257 melanoma.
What all share (test): NCI tumour cell line growth inhibition, 48 h

Molecules are shown by their SMILES. Where “and” joins values, the source holds several entries; their conditions need not be identical. Equal entries are not always repeated.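 These data come from cells grown in 96-well plates and exposed to compound for 48 hours at five concentrations. Abbreviation: GI50, concentration required for 50% inhibition of growth. Definition used: TGI = concentration required for complete inhibition of growth.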

As to `COc1c(B(O)O)cccc1-c1nc2c(F)cc3n[nH]c(C)c3c2c2c1CCCC2`, the GI50 in the assay with 786-0 renal is 661 nM; in the assay with ACHN renal it was 534 nM; with HCT-15 colon it was 1.49 µM; in the assay with HOP-92 NSCLC, 11.7 nM; in the assay on K-562 leukemia it was 1.68 µM; in the assay on LOX IMVI melanoma it was 0.688 µM. Further, the GI50 in the assay on MDA-MB-231 breast was 0.0412 µM; in the assay with NCI-H460 lung, 1280 nM; in the assay with U251 CNS it was 1.12 µM; in the assay on UACC-257 melanoma it was 2.08 µM. In addition, the TGI was 10.5 µM in the assay on 786-0 renal; greater than 50 µM in the assay on ACHN renal; greater than 50 µM in the assay with HCT-15 colon; 2.57 µM in the assay with HOP-92 NSCLC; greater than 50 µM in the assay on K-562 leukemia; 4.14 µM with LOX IMVI melanoma. In addition, the TGI in the assay with MDA-MB-231 breast is greater than 50 µM; in the assay with NCI-H460 lung, greater than 50 µM; with U251 CNS, greater than 50 µM; in the assay with UACC-257 melanoma, greater than 40.8 µM.

On to `O=C(CCN1CCCN(c2cnc3ccccc3n2)CC1)c1csc2ccccc12`, for which the GI50 is 18400 nM in the assay on 786-0 renal; 17900 nM in the assay on ACHN renal; 18.9 µM in the assay with HCT-15 colon; 15800 nM in the assay with HOP-92 NSCLC; 20 µM in the assay on K-562 leukemia; 17.2 µM in the assay on LOX IMVI melanoma. Also, the GI50 is 21.2 µM in the assay with MDA-MB-231 breast, 32800 nM with NCI-H460 lung, 17.6 µM in the assay on U251 CNS and 26.1 µM in the assay with UACC-257 melanoma. Also, the TGI came out at 32.3 µM in the assay on 786-0 renal; 31.8 µM with ACHN renal; 34.8 µM with HCT-15 colon; 34 µM with HOP-92 NSCLC; 48.6 µM with K-562 leukemia; 31.3 µM in the assay on LOX IMVI melanoma. Also, the TGI was 37 µM in the assay on MDA-MB-231 breast, greater than 100 µM in the assay on NCI-H460 lung, 31.4 µM with U251 CNS and 63.2 µM in the assay with UACC-257 melanoma.

For the compound `C=CC(=O)N1CCC[C@@H](n2nc(-c3ccc(Oc4ccccc4)cc3)c3c(N)ncnc32)C1`, the GI50 was greater than 4500 nM with 786-0 renal; 669 nM in the assay on ACHN renal; greater than 10 µM with HCT-15 colon; 2670 nM in the assay on HOP-92 NSCLC; greater than 10 µM with K-562 leukemia; greater than 5.39 µM with LOX IMVI melanoma. Further, the GI50 in the assay with MDA-MB-231 breast was 9.69 µM; in the assay on NCI-H460 lung, greater than 10000 nM; in the assay on U251 CNS it was 9.81 µM; with UACC-257 melanoma, greater than 10 µM. The TGI is greater than 10 µM in the assay with 786-0 renal; greater than 10 µM with ACHN renal; greater than 10 µM in the assay on HCT-15 colon; greater than 8.69 µM in the assay with HOP-92 NSCLC; greater than 10 µM in the assay on K-562 leukemia; greater than 10 µM in the assay with LOX IMVI melanoma. The TGI in the assay with MDA-MB-231 breast, in the assay with NCI-H460 lung, in the assay on U251 CNS and with UACC-257 melanoma was greater than 10 µM each time.

On to `CC(=O)N[C@@H](Cc1ccc(OP(=O)(O)O)cc1)C(=O)N[C@H]1CCC(=O)N2CCC[C@@H](C(=O)NC3CCc4ccccc43)N2C1=O` (stereo not given in full), for which the GI50 in the assay on 786-0 renal is greater than 25000 nM; in the assay with ACHN renal, greater than 25000 nM; in the assay with HCT-15 colon, greater than 25 µM; with HOP-92 NSCLC, greater than 25000 nM; with K-562 leukemia it was greater than 25 µM; with LOX IMVI melanoma, greater than 25 µM. Also, the GI50 was greater than 25 µM with MDA-MB-231 breast, greater than 25000 nM in the assay with NCI-H460 lung, greater than 25 µM in the assay with U251 CNS and greater than 25 µM in the assay with UACC-257 melanoma. Also, the TGI in the assay with 786-0 renal, with ACHN renal, with HCT-15 colon, with HOP-92 NSCLC, in the assay on K-562 leukemia and in the assay on LOX IMVI melanoma was greater than 25 µM throughout. The TGI in the assay on MDA-MB-231 breast, in the assay with NCI-H460 lung, with U251 CNS and in the assay with UACC-257 melanoma was greater than 25 µM each time.

In the case of `CCOc1ccc2c(c1)C(=O)c1c-2n(CCCN=[N+]=[N-])c(=O)c2cc([N+](=O)[O-])ccc12`, the GI50 in the assay with 786-0 renal is 4100 nM; in the assay with ACHN renal, 2020 nM; in the assay on HCT-15 colon, 16.9 µM; in the assay on HOP-92 NSCLC, 7950 nM; in the assay on K-562 leukemia it was 17.2 µM; in the assay on LOX IMVI melanoma, 3.02 µM. In addition, the GI50 in the assay with MDA-MB-231 breast is 45 µM; with NCI-H460 lung it was 284 nM; in the assay with U251 CNS, 3.57 µM; in the assay with UACC-257 melanoma it was 96.4 µM. In addition, the TGI in the assay on 786-0 renal was 22.7 µM; in the assay on ACHN renal it was 9.32 µM; with HCT-15 colon it was greater than 100 µM; in the assay on HOP-92 NSCLC, 46.7 µM; in the assay on K-562 leukemia, greater than 100 µM; in the assay on LOX IMVI melanoma it was greater than 100 µM. In addition, the TGI in the assay on MDA-MB-231 breast is greater than 100 µM; with NCI-H460 lung, 10.7 µM; in the assay with U251 CNS it was 37.7 µM; with UACC-257 melanoma, greater than 100 µM.

With `CC[C@@H](C)/C=C(C)/C=C/C(=O)c1c(O)c(-c2ccc(O)cc2)cn(OC2CC(=O)CCC(C)OC(=O)CC2O)c1=O` (stereo not given in full), the GI50 in the assay on 786-0 renal was 386 nM; in the assay on ACHN renal it was 258 nM; in the assay with HCT-15 colon it was 0.145 µM; in the assay with HOP-92 NSCLC, 509 nM; with K-562 leukemia, 0.386 µM; in the assay with LOX IMVI melanoma, 0.171 µM. For the same compound, the GI50 in the assay on MDA-MB-231 breast is 0.85 µM; with NCI-H460 lung, 267 nM; in the assay on U251 CNS, 0.373 µM; with UACC-257 melanoma it was 0.368 µM. Besides, the TGI with 786-0 renal was 4.09 µM; in the assay on ACHN renal it was 7.06 µM; in the assay with HCT-15 colon, 15.8 µM; in the assay on HOP-92 NSCLC, 18.6 µM; in the assay on K-562 leukemia, greater than 47.9 µM; in the assay with LOX IMVI melanoma, 2.7 µM. In addition, the TGI was 24.3 µM in the assay with MDA-MB-231 breast, 2.99 µM in the assay with NCI-H460 lung, 12.5 µM in the assay with U251 CNS and 8.87 µM in the assay with UACC-257 melanoma.

As to `NC1(C(=O)N[C@@H](CCO)c2ccc(Cl)cc2)CCN(c2ncnc3[nH]ccc23)CC1`, the GI50 in the assay with 786-0 renal is 292 nM and 354 nM; in the assay with ACHN renal, > 2010 nM and 9600 nM; with HCT-15 colon, > 3.33 µM and 53.9 µM; with HOP-92 NSCLC, 167 nM and 144 nM; in the assay with K-562 leukemia, > 5.28 µM and 59.9 µM; in the assay on LOX IMVI melanoma, > 2.85 µM and 22.2 µM. The GI50 with MDA-MB-231 breast is > 3.44 µM and 41 µM; with NCI-H460 lung it was 679 nM and 1740 nM; in the assay on U251 CNS, > 3.38 µM and 2 µM; with UACC-257 melanoma, 3.8 µM and 7.39 µM. Further, the TGI with 786-0 renal was greater than 100 µM; in the assay on ACHN renal, greater than 100 µM; in the assay on HCT-15 colon, greater than 100 µM; in the assay on HOP-92 NSCLC, 1.54 µM and 1.53 µM; in the assay on K-562 leukemia, greater than 100 µM; in the assay with LOX IMVI melanoma it was greater than 100 µM. In addition, the TGI with MDA-MB-231 breast, in the assay with NCI-H460 lung, with U251 CNS and in the assay on UACC-257 melanoma was greater than 100 µM in each case.
